{
  "source": "patent US6338963B1",
  "about": "“Use of carbon monoxide dependent guanylyl cyclase modifiers to stimulate neuritogenesis” (NeoTherapeutics, Inc., priority 1994, dated 2002)",
  "key": {"[1]": {"assay": "Appearance and weight during one week in drinking water", "format": "in vivo, F344 rats", "details": "30 mg/kg/day and ~3,000 mg/kg/day in drinking water", "protocol": "Adult female F344 rats were given either AIT-082 (doses: 30 mg/kg/day or a higher dose of 30 mg/ml (˜3,000 mg/kg/day); n=6 rats per group) in their drinking water, or water alone, as a vehicle for control. The duration of the study was seven days, at which time the rats were anesthesized and perfused with ice-cold saline. The brains of the rats were rapidly removed. The brains were placed on a chilled glass plate and dissected into the following regions: basal forebrain, frontal cortex, parietal cortex, cerebellum, spinal cord, and hippocampal formation. Tissues were stored at −70° C. until assayed in a specific two-site ELISA for either NGF, BDNF, NT-3, or GNDF.\nThis effect was not seen in animals treated with AIT-082 at 3000 mg/kg/day."}, "FGF-2 mRNA": {"system": "FGF-2 mRNA", "assay": "Northern/slot blot of neurotrophin mRNA from astrocytes: FGF-2", "format": "cell-based, NIH Swiss mice", "design": "key to FGF-2 mRNA: The conditions which produced a detectable amount of each of the neurotrophin mRNAs are indicated by a “+”; a “++” indicating that at least twice the detectable amount was present; Those blots which were negative are indicated by a “−”", "details": "for FGF-2 mRNA: 24 hours", "protocol": "Induction of neurotrophin mRNA was determined by northern blot analysis of astrocytes cultured with AIT-082, NGF, or both. The cells were harvested and RNA extracted at 24 hours after treatment.\nMore particularly, astrocytes from the cerebral cortex of NIH Swiss mice (Harlan) were isolated. Briefly, newborn pups (0-24 hours) were decapitated. Their brains were removed under aseptic conditions and were placed in modified Dulbecco's medium (DMEM) containing 20% heat-inactivated horse serum (Hyclone) (“complete medium”). The neopallium was then dissected from each cerebral hemisphere and minced into 1 mm cubes.\nThe astrocytes were then isolated by mechanical dissociation. The cubes were vortexed at maximum speed for one minute. The cell suspension was then passed first through 75 mm Nitex then through 10 mm Nitex. The resulting cell suspension was diluted in complete medium to a final concentration of one brain per 10 ml of complete medium. Ten milliliters of the diluted cell suspension was added to each 100 mm Falcon tissue culture plate (Fisher). After 3 days the medium was replaced with 10 ml fresh complete medium and subsequently was replaced twice weekly with DMEM containing 10% heat inactivated horse serum (“growth medium”). After two weeks in culture the astrocytes formed a confluent monolayer.\nFor RNA extraction, astrocytes were trypsinized. The astrocytes were then replated onto 100 mm PORN coated plates at a cell density of 10^6 cells per plate (10 ml growth medium). After 2 hrs PBS, guanosine (Guo), or GTP at 10 mM were added to the appropriate plates. Total RNA was harvested from 1.5×10^7 cells for each treatment, 4 and 24 hrs after treatment using TRIzol reagent and supplier protocol (GIBCO BRL/Life Technologies, Inc.). For slot blots, total RNA was bound to Hybond-N filters (Amersham/United States Biochemicals) as described in Transfer and Immobilization of Nucleic Acids and Proteins to S & S Solid Supports (S and S Protocols: Schleicher & Schuell, New Hampshire, USA). Northern blots were also performed using […] total RNA from each sample. These were electrophoresed in 1% agarose gels containing formaldehyde and blotted onto Hybond-N filters according to S and S protocols.\nThe blots were probed with ^32P-labeled cDNA (NGF, NT-3 and BDNF probes) or oligonucleotide probe (FGF-2) by hybridization in Piperazine-N,N′-bis-(2-ethanesulfonic acid) (PIPES) buffer (50 mM PIPES, pH 6.8; 50 mM NaH2PO4; 0.1 M NaCl; 5% SDS and 1 mM EDTA) overnight at 50° C. […] Various concentrations ([…] of total RNA), as determined by spectrophotometry, of each sample were blotted and probed so that quantification could be done after insuring a linear film response. Quantification was performed using MCID Image Analysis (St. Catherine's, Ontario, Canada). […]"}, "TGFβ2 [2]": {"system": "TGFβ2", "assay": "TGFβ2 release from rat cultured astrocytes (ELISA)", "format": "cell-based", "protocol": "NGF and TGFβ2 levels were assayed in the culture medium of the astrocytes by specific ELISA assays using kits from Roche (Germany) and Promega (USA) respectively. NGF basal levels were 56.3±3.2 pg/ml. TGFβ2 levels were 9.1±0.06 pg/ml.\nIn FIG. 61, the dose-response curves of NGF and TGFβ2 release from rat cultured astrocytes as the result of exposure to AIT-082 are shown."}, "TGFβ2 [3]": {"system": "TGFβ2", "assay": "Western blot of astrocyte cytosolic proteins: TGFβ2", "format": "cell-based, rat", "protocol": "Western blot analysis of cytosolic proteins from cultured astrocytes was performed to detect the factors NGF and TGFβ2. The results are shown in FIG. 58A for NGF at 6 and 12 hours and in FIG. 58B for TGFβ2 at 6 and 12 hours.\nWestern blot analysis of cytosolic proteins deriving from cultured astrocytes treated for 6 or 12 hours with 100 μM AIT-082 was performed. AIT-082 is able to promote the production of neurotrophic factors from rat cultured astrocytes as measured by Western blot analysis. The results are shown in FIG. 62A for NGF and in FIG. 62B for TGFβ2. Electrophoresis was performed in 12% (for NBF) or 15% (for TGFβ2) SDS-PAGE (20 μg of total protein per lane). The separated proteins were transferred onto a PVDF membrane (Bio-Rad Laboratories, Italy)."}, "rat cultured astrocytes": {"system": "rat cultured astrocytes", "assay": "Release of radioactively labeled adenine-based purines from rat cultured astrocytes", "format": "cell-based"}},
  "data": [
    {"smiles": "O=C(CCn1cnc2c(=O)[nH]cnc21)Nc1ccc(C(=O)O)cc1", "note": "[AIT-082, N-4-carboxyphenyl-3-(6-oxohydropurin-9-yl)propanamide]", "values": [
      {"measurement": "appearance and weight", "setting": "[1]", "result": "appeared normal and showed no overt signs of weight loss"},
      {"measurement": "FGF-2 mRNA", "setting": "FGF-2 mRNA; AIT-082 100 mM", "result": "++"},
      {"measurement": "FGF-2 mRNA", "setting": "FGF-2 mRNA; AIT-082 + NGF (40 ng/ml)", "result": "+"},
      {"measurement": "increase of TGFβ2 production as compared to a control", "setting": "TGFβ2 [2]; rat cultured astrocytes", "result": 1.7, "unit": "fold"},
      {"measurement": "intracellular levels of TGFβ2", "setting": "TGFβ2 [3]; 100 μM AIT-082, 6 or 12 hours", "result": "increased in time-dependent manner"},
      {"measurement": "outflow of radioactive adenine-based purines", "setting": "rat cultured astrocytes; astrocytes exposed for one hour", "result": "dose-dependent increase"},
      {"measurement": "release of adenosine and inosine", "setting": "rat cultured astrocytes; first hour of the release", "result": "increased the release of adenosine and inosine in a dose-dependent fashion"},
      {"measurement": "release of hypoxanthine and the adenine nucleotides ATP, ADP, or AMP", "setting": "rat cultured astrocytes; first hour of the release", "result": "without effecting the release"}
    ]},
    {"smiles": "Nc1nc2c(ncn2[C@@H]2O[C@H](CO)[C@@H](O)[C@H]2O)c(=O)[nH]1", "note": "[guanosine]", "values": [
      {"measurement": "FGF-2 mRNA in astrocytes", "setting": "FGF-2 mRNA; guanosine, 24 hours after addition", "result": "increased"},
      {"measurement": "release of TGFβ2 from astrocytes", "setting": "TGFβ2 [2]; exposure for 24 hours", "result": "dose-dependent increase"},
      {"measurement": "intracellular content of TGFβ2", "setting": "TGFβ2 [3]; guanosine, 6 and 12 hours", "result": "increased the intracellular content of NGF and TGFβ2 in time-dependent fashion"},
      {"measurement": "ADP, radioactivity released in the culture medium", "setting": "rat cultured astrocytes; 300 μM, 1 hour", "result": "0.84 ± 0.09", "unit": "cpm × 10^3"},
      {"measurement": "AMP, proportional release", "setting": "rat cultured astrocytes; 300 μM, 1 hour", "result": "(12.3 ± 1.7) percentage of the total [^3H]-purines released"},
      {"measurement": "AMP, radioactivity released in the culture medium", "setting": "rat cultured astrocytes; 300 μM, 1 hour", "result": "1.58 ± 0.22", "unit": "cpm × 10^3"},
      {"measurement": "ATP, proportional release", "setting": "rat cultured astrocytes; 300 μM, 1 hour", "result": "(5.5 ± 0.7) percentage of the total [^3H]-purines released"},
      {"measurement": "ATP, radioactivity released in the culture medium", "setting": "rat cultured astrocytes; 300 μM, 1 hour", "result": "0.71 ± 0.09", "unit": "cpm × 10^3"},
      {"measurement": "Adenosine, radioactivity released in the culture medium", "setting": "rat cultured astrocytes; 300 μM, 1 hour", "result": "1.53 ± 0.10", "unit": "cpm × 10^3"},
      {"measurement": "Hypoxanthine, proportional release", "setting": "rat cultured astrocytes; 300 μM, 1 hour", "result": "(24.7 ± 1.5) percentage of the total [^3H]-purines released"},
      {"measurement": "Hypoxanthine, radioactivity released in the culture medium", "setting": "rat cultured astrocytes; 300 μM, 1 hour", "result": "3.41 ± 0.20", "unit": "cpm × 10^3"},
      {"measurement": "Inosine, radioactivity released in the culture medium", "setting": "rat cultured astrocytes; 300 μM, 1 hour", "result": "4.64 ± 0.51", "unit": "cpm × 10^3"},
      {"measurement": "ADP, proportional release", "setting": "rat cultured astrocytes; 300 μM, 3 hours", "result": "(4.0 ± 0.6) percentage of the total [^3H]-purines released"},
      {"measurement": "ADP, radioactivity released in the culture medium", "setting": "rat cultured astrocytes; 300 μM, 3 hours", "result": "0.50 ± 0.07", "unit": "cpm × 10^3"},
      {"measurement": "AMP, proportional release", "setting": "rat cultured astrocytes; 300 μM, 3 hours", "result": "(11.9 ± 1.0) percentage of the total [^3H]-purines released"},
      {"measurement": "AMP, radioactivity released in the culture medium", "setting": "rat cultured astrocytes; 300 μM, 3 hours", "result": "1.37 ± 0.14", "unit": "cpm × 10^3"},
      {"measurement": "ATP, proportional release", "setting": "rat cultured astrocytes; 300 μM, 3 hours", "result": "(3.1 ± 0.32) percentage of the total [^3H]-purines released"},
      {"measurement": "ATP, radioactivity released in the culture medium", "setting": "rat cultured astrocytes; 300 μM, 3 hours", "result": "0.39 ± 0.04", "unit": "cpm × 10^3"},
      {"measurement": "Adenosine, proportional release", "setting": "rat cultured astrocytes; 300 μM, 3 hours", "result": "(9.3 ± 0.9) percentage of the total [^3H]-purines released"},
      {"measurement": "Adenosine, radioactivity released in the culture medium", "setting": "rat cultured astrocytes; 300 μM, 3 hours", "result": "1.16 ± 0.15", "unit": "cpm × 10^3"},
      {"measurement": "Hypoxanthine, proportional release", "setting": "rat cultured astrocytes; 300 μM, 3 hours", "result": "(26.3 ± 2.7) percentage of the total [^3H]-purines released"},
      {"measurement": "Hypoxanthine, radioactivity released in the culture medium", "setting": "rat cultured astrocytes; 300 μM, 3 hours", "result": "3.29 ± 0.34", "unit": "cpm × 10^3"},
      {"measurement": "Inosine, proportional release", "setting": "rat cultured astrocytes; 300 μM, 3 hours", "result": "(3.25 ± 3.3) percentage of the total [^3H]-purines released"},
      {"measurement": "Inosine, radioactivity released in the culture medium", "setting": "rat cultured astrocytes; 300 μM, 3 hours", "result": "4.09 ± 0.41", "unit": "cpm × 10^3"}
    ]}
  ]
}
